Reference: US20130261058A1, “ACCELERATION OF WOUND HEALING BY GROWTH HORMONE RELEASING HORMONE AND ITS AGONISTS” (University of Miami, priority 2010, published 2013)
Entries after “also recorded” stand apart in the source; their conditions may differ.

Assays:
[1] = test system: pituitary GHRH receptor; conditions: subcutaneous administration; cited from earlier work
[2] = test system: α-smooth muscle actin (αSMA); test: Immunoblot analysis of αSMA expression in MEFs; assay type: cell-based, mouse
Experimental: (§1) hGHRH(1-29)NH2 was obtained from Sigma. Agonist JI-38 was synthesized as reported (24, 26). The peptides were dissolved in phosphate buffered saline (PBS) at the indicated concentrations. Controls contained solvent alone. Fibroblasts were isolated using standard methods and maintained in Dulbecco's Modified Eagle Medium containing 10% FBS and antibiotics/antimycotics. For all experiments, primary fibroblasts of less than 10 passages old were used. For Western blot analysis, antibodies for αSMA, FAK and actin were obtained from Sigma while for SV1; the antibody 2317/5 was used (35). The same antibody was also used for the immunohistochemistry as previously described (36). Histology was performed on standard 5 μm sections of paraffin embedded material stained with hematoxylin/eosin. βGal-staining was performed in lung fibroblasts, isolated from transgenic mice bearing an αSMA-beta galactosidase reporter transgene. After treatment with the peptides for 24 hours, cells were washed (three times each for 5 min) with 0.1M PBS (pH 7.4), and fixed with 0.05% glutaraldehyde in PBS, for 10 min at room temperature. After three more washes, cells were stained with 1 mg/ml of 5-bromo-4-chloro-3indonyl β-D-galactopyranoside, 5 mM potassium ferrocyanide, 5 mM potassium ferricyanide and 2 mM MgCl2) overnight at 37° C.
αSMA is an actin isoform that confers tensional and contractile activity (25,26). Typically SMA is selectively expressed in smooth muscle cells of adult animals, but is induced in activated fibroblasts (myofibroblasts) during wound healing, within the stroma of many tumors, and in general under conditions where there is extensive tissue reorganization and regeneration (27,28). […] Of interest, this effect was significant at a concentration of 100 nM but not 500 nM of either peptide. A similar pattern of expression was found for focal adhesion kinase (FAK), an enzyme which plays a role in cell migration and invasion (29). The activation of αSMA in fibroblasts following GHRH treatment was confirmed in lung fibroblasts isolated from transgenic mice bearing a reporter β-galactosidase (βGal) transgene under the regulation of the αSMA promoter/enhancer (30). Cells from these mice display βGal positivity when αSMA expression is activated (30).

[3] = test system: 4 mm circular skin wounds; test: Histology, fibroblast counting and Van Gieson staining of 4 mm skin wounds; assay type: in vivo, mice; conditions: for content of fibroblasts in wounds (histology) compared to controls: day 5, 100 nM twice daily; for increase of fibroblast density in the wound area: vs controls, direct counting, 100 nM twice daily, p<0.05, FIG. 6
Experimental: FIG. 6. Quantification of fibroblast content in 4 mm circular skin wounds in mice exposed to GHRH or GHRH agonist JI-38 twice per day at 100 nM on day 5 and 8. Fibroblast number was assessed by direct counting of fibroblast in at least 3 random optic fields in the wound areas under light microscope and expressed relative to the fibroblast content in the controls on day 5. Data are expressed as mean±SEM. *, p<0.05.
as §1
(§2) Wild-type mice of mixed C57BL6/FVB genetic background, originally obtained by Jackson Laboratories were maintained in our laboratory. Care of animals was in accord with University of Athens Institutional guidelines. The reporter αSMA-βGal mice have been described elsewhere (32). Wound healing assay in vivo was performed after administration of anesthesia (100 mg/kg ketamine, 10 mg/kg xylazine). Mice were shaved in the back, wiped with ethanol and wounds were cut using a biopsy punch (4 mm). The skin was grabbed at dorsal midline and placed over a cardboard backing on one side of the skin fold. The biopsy punch was pressed until both layers of the skin were punched and the cardboard was reached. Four wounds were performed per mouse, two on each side of the dorsal midline, at equal distance, so that the tension of the skin would be equal all over the mouse back and would not influence the contraction of the wounds. The experimental protocol was reviewed and approved by the University of Athens Animal Experimentation Committee. GHRH and JI-38 (100 nM) were applied twice daily in a volume of approximately 50 μl. At least 10 wounds for each of the control (vehicle, PBS), GHRH or JI-38 were observed. In order to avoid study variation due to the wound healing variability between different experimental animals, each mouse was its own control. For wound area measurements digital pictures of wounds were analyzed by the ImageJ (N1H) software. Wound size was monitored over time relative to a 4 mm diameter circular paper cutout placed next to the wound as previously described (38). For histology, 4-6 wounds per time point per group were analyzed. Similar results were obtained among different mice and histological sections for each group and representative are shown.
Tissue sections from mice wounds were de-paraffinized and rehydrated in distilled H2O. These sections were then stained in orcein (Sigma) 1% w/v in 96% ethanol for 30 min at room temperature and washed in distilled H2O. […]

[4] = test system: MEFs; test: Scratch wound migration assay of MEFs; assay type: cell-based, mouse; conditions: 100 nM, 18 h
Experimental: (§3) The rate of cell proliferation was evaluated by the Trypan blue exclusion assay under inverted microscope. Cell migration was performed by the “scratch” assay as described, exposing cells to the peptides for 18 h (33). For the transwell-based migration assay, MEFs were seeded on 8 μm pore size transwells (Corning) and after 5 days exposure to the peptides at the indicated concentration, cell number was evaluated in the bottom compartment. All in vitro experiments were performed in triplicate and similar results were obtained.
(§4) Subsequently MEFs were subjected to scratch wound migration assays in vitro, following exposure to GHRH and 31-38 at 100 nM. […] A considerable, notwithstanding not significant, stimulation of cell migration, by about 2-fold as compared to the controls, was also evidenced at 500 nM GHRH or 31-38. In order to rule out the possibility that the results of these two migration assays were simply due to the increased proliferation, MEFs were exposed to the peptide analogs and cell proliferation was evaluated.

[5] = test system: MEFs; test: Transwell-based migration assay (8 μm pore) of MEFs; assay type: cell-based, mouse; conditions: for increase of migration through 8 μm-pore transwells compared to controls / stimulation of cell migration through transwells compared to controls: 5 days exposure; for increase of migration through 8 μm-pore transwells compared to controls: p<0.05; for stimulation of cell migration through transwells compared to controls: not significant
Experimental: as §3, §4

[6] = test system: MEFs; test: Cell proliferation by Trypan blue exclusion assay in MEFs; assay type: cell-based, mouse
Experimental: as §3, §4

[7] = test system: subcutaneous peptidases; conditions: cited from earlier work
[8] = test system: focal adhesion kinase (FAK); test: Immunoblot analysis of FAK expression in MEFs; assay type: cell-based, mouse; conditions: 100 nM, 24 h, Western blot
Experimental: as §1
(§5) αSMA is an actin isoform that confers tensional and contractile activity (25,26). […]

[9] = test system: αSMA promoter-βGal reporter transgene; test: βGal staining of lung fibroblasts from αSMA promoter-βGal reporter transgenic mice; assay type: cell-based; conditions: 100 nM and 500 nM, 24 h
Experimental: as §1, §5

[10] = test system: 4 mm circular skin wounds; test: Wound healing assay in vivo, 4 mm skin biopsy wounds, wound area; conditions: mice; for wound healing compared to controls: 100 nM applied twice daily to the wound
Experimental: as §2
In order to evaluate the effect of GHRH on wound healing in vivo, wild type mice were subjected to 4 mm skin biopsies and the healing of the inflicted wounds in the presence or absence of GHRH and JI-38 at 100 nM was observed daily. In order to avoid variation in the wound healing process between different experimental animals, a control wound was always included in each mouse, thus permitting paired analysis.

[11] = test system: SV1; test: Immunoblot analysis of SV1 expression in MEFs; assay type: cell-based, mouse; conditions: 500 nM, 24 h
Experimental: as §1, with “After three more washes, cells were stained with 1 mg/ml of 5-bromo-4-chloro-3indonyl β-D-galactopyranoside, 5 mM potassium ferrocyanide, 5 mM potassium ferricyanide and 2 mM MgCl2) overnight at 37° C.” left out
It was evaluated whether MEFs express the receptor for GHRH SV1. Primary MEFs were exposed to GHRH and agonistic GHRH analog JI-38 (24, 26) at 100 nM and 500 nM for 24 h and SV1 expression was then assessed by immunoblot analysis.

Row | Substance | SMA expression ([2]; 100 nM, 24 h, immunoblot) | SMA expression ([2]; 500 nM, compared with 100 nM) | content of fibroblasts in wounds (histology) compared to controls [3] | collagen fibers in the lamina propria, Van Gieson staining ([3]; day 8, 100 nM twice daily) | histology of epidermis, dermis and stroma ([3]; day 8, 100 nM twice daily) | increase of fibroblast density in the wound area [3] | migration of MEFs in scratch assay compared to controls [4] | migration of MEFs in 8 μm-pore transwell system (figure legend) ([5]; 100 nM) | increase of migration through 8 μm-pore transwells compared to controls ([5]; 100 nM) | stimulation of cell migration through transwells compared to controls ([5]; 500 nM) | proliferation of MEFs ([6]; 100 nM) | proliferation of MEFs ([6]; 500 nM) | FAK expression [8] | wound healing compared to controls [10] | day on which acceleration of wound healing was first evidenced ([10]; 100 nM twice daily) | time to nearly complete healing ([10]; 100 nM twice daily) | further results
1 | [Dat^1, Gln^8, Orn^12,21, Abu^15, Nle^27, Asp^28, Agm^29]hGH-RH(1-29)NH2 [JI-38] | stimulated; also recorded: induced | less pronounced | to a lesser extent; also recorded: considerable increase | could not be seen | dense and rich in fibroblasts | ~40% | considerably increased | significantly increased | ~3 fold | about 2 fold | no considerable effect | no considerable effect | induced | considerable acceleration | 3 days | about 10 days post-incision | potency relative to GHRH in in vivo growth hormone release assay [1]: much more potent than GHRH; migration of MEFs in scratch assay compared to controls ([4]; listed as 51-38): increased migration; potency in transwell-based migration assay relative to GHRH [5]: more potent than GHRH; migration of MEFs in 8 μm-pore transwell system (figure legend) ([5]; 500 nM): significantly increased; stability against subcutaneous peptidases [7]: resistance to degradation by subcutaneous peptidases; increase in fraction of βGal-positive (αSMA-lacZ positive) cells compared to untreated controls ([9]; listed as 31-38): about 3 fold; increase in fraction of βGal-positive (αSMA-lacZ positive) cells compared to untreated controls ([9]; listed as 51-38): ~3 fold
2 | hGHRH(1-29)NH2 | stimulated; also recorded: induced | less pronounced | increased content of fibroblasts; also recorded: considerable increase | nearly normally arranged collagen fibers | almost normal with a diffuse mild inflammatory infiltration | about 80% | considerably increased; also recorded: increased migration | significantly increased | about 2.5 fold | about 2 fold | stimulated proliferation | no considerable effect | induced | considerable acceleration | 3 days | about 10 days post-incision | reformation of the covering epithelium ([3]; day 8, 100 nM twice daily): almost complete; levels of SV1 expression [11]: upregulated; potency histologically and macroscopically at equimolar concentrations ([10]; 100 nM twice daily): more potent than 31-38
